Results published in patent publication US10077261B2, “Imidazolin-5-one derivative useful as FASN inhibitors for the treatment of cancer” (Janssen Pharmaceutica NV, priority 2012, dated 2018).

Columns and labels:
A2780 ovarian cells [1] = assay: A2780 ovarian cell proliferation assay in lipid reduced medium, with palmitate (MTT); format: cell-based; conditions: Homo sapiens, A2780, 96 h; read-out: pIC50 A2780 Ovarian Cell, With Palmitate (converted)
Procedure, shortened: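 In this palmitate-supplemented format, compound dilutions (30 μM down to 0.01 μM) are added to cells in lipid-reduced serum with 25 μM palmitate, 0.2% fatty-acid-free BSA and 0.25% ethanol. After four days (96 h) MTT absorbance at 544 nm is recorded and fitted by minimum sum of squares.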

[2] = target: Fatty Acid Synthase Keto-reductase Domain (FASN KR) (Homo sapiens, UniProt P49327); assay: Fatty Acid Synthase keto-reductase domain (FASN KR) inhibition, NADPH oxidation at 340 nm
Sequence of Fatty Acid Synthase Keto-reductase Domain (FASN KR) (P49327 whole entry, the tested form may be a part): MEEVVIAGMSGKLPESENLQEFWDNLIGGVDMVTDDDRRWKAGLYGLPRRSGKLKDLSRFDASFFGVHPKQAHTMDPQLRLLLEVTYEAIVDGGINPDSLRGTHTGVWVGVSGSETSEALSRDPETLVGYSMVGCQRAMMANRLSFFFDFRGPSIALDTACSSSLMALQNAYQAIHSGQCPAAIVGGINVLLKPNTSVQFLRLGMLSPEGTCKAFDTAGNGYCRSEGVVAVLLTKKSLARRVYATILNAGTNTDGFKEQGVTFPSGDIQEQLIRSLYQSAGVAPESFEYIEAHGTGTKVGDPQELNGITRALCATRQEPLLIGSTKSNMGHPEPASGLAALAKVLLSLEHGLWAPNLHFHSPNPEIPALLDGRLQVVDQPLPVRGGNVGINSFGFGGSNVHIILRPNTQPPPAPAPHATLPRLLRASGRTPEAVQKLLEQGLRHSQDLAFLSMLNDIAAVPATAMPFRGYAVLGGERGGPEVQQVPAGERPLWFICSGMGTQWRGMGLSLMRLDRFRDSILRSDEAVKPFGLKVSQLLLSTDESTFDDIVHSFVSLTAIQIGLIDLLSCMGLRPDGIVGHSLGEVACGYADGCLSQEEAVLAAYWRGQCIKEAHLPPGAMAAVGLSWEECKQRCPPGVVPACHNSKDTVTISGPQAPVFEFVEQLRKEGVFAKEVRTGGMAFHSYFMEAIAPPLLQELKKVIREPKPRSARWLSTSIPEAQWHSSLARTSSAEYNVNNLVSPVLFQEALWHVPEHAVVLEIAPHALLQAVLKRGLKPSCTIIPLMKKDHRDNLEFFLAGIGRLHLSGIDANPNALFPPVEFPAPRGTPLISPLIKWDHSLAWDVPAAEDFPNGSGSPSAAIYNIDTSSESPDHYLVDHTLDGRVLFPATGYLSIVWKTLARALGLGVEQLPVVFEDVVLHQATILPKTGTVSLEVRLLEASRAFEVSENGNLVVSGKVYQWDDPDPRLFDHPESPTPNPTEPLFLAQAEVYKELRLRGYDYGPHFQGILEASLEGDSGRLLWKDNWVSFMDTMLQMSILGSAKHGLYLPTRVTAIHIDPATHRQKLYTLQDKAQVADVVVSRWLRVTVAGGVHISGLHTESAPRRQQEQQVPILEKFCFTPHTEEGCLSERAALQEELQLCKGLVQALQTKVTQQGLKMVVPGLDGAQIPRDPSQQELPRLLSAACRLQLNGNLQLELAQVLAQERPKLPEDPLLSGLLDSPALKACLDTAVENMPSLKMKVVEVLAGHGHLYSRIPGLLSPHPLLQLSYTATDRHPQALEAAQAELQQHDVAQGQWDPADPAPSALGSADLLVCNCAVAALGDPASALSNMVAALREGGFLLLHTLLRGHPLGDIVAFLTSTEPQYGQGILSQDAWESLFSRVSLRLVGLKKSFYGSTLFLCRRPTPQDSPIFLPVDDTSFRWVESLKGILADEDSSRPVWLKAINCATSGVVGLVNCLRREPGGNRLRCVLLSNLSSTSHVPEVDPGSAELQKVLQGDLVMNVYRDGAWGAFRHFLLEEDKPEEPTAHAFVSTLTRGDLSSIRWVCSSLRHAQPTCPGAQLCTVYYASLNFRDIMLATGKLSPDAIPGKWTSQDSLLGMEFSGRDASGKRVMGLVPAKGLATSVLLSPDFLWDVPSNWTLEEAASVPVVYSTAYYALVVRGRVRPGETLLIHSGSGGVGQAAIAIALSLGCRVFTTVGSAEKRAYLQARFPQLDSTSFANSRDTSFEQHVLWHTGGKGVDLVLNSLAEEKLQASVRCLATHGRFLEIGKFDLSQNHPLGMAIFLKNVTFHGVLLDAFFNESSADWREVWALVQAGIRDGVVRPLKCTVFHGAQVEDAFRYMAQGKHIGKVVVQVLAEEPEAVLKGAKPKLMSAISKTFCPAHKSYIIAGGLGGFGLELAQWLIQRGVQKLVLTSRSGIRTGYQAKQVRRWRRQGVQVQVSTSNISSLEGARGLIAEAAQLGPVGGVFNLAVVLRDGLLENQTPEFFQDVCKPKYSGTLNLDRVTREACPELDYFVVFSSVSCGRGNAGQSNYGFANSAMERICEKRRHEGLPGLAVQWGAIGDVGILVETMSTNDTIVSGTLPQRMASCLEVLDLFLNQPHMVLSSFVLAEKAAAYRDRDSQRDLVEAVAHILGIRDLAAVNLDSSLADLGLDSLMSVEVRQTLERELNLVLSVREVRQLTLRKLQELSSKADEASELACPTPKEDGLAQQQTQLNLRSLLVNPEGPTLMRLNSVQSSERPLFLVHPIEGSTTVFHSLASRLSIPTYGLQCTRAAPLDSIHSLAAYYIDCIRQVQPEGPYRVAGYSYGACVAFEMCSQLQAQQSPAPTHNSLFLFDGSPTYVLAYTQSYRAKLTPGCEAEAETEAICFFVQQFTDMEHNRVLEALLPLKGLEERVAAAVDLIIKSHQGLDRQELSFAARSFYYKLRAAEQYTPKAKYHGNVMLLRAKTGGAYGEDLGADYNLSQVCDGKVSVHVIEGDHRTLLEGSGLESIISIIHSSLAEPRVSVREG
Protocol: After 20 minutes incubation at room temperature the plate was measured again (T2).
The decrease in absorbance was calculated as (Absorbance before incubation T1)−(Absorbance following incubation T2).
A plot of Controlmin versus test compound concentration was fitted to a 4-parameter logistic curve using a non-linear least squares regression method.

[3] = test system: LNCaP-Vancouver prostate cells; assay: In vitro LNCaP Vancouver prostate cell proliferation assay in lipid reduced medium; format: cell-based; conditions: read-out: pIC50 LNCaP_Vancouver prostate cell (converted)
[4] = target: T1, hFASN enzyme (full length) (Homo sapiens, UniProt P49327); assay: Fatty Acid Synthase (FASN) inhibition scintillation proximity assay; format: biochemical; conditions: for inhibition at 10 µM: read-out: Human FASN % inhibition @ 10 μM, 10 μM test compound; for IC50: read-out: Human FASN pIC50 (converted)
T1 construct: 10 μL hFASN enzyme (full length, 300 ng, purified in house); made in house
T1 sequence (P49327 whole entry): as the sequence (P49327 whole entry, the tested form may be a part) above
Procedure, shortened: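 Read-out relies on hydrophobic ³H-palmitate product, formed from ³H-acetyl-CoA and malonyl-CoA, binding streptavidin imaging beads, measured at 610±20 nm after at least 24 h. Full-length enzyme (300 ng) in phosphate buffer pH 7.5 with DTT; eight compound concentrations, 0.01–30 μM.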

[5] = test system: PC-3M-Luc-C6 prostate cells; assay: In vitro PC-3M-Luc-C6 prostate cell proliferation assay in lipid reduced medium; format: cell-based; conditions: 96 h, read-out: pIC50 PC-3M-Luc-C6 prostate cell (converted)
A2780 ovarian cells [6] = assay: A2780 ovarian cell proliferation assay in lipid reduced medium, without palmitate (MTT); format: cell-based; conditions: Homo sapiens, A2780, 96 h; read-out: pIC50 A2780 Ovarian Cell, Without Palmitate (converted)

Cc1[nH]c2ccc(-c3ccc(C4=NC5(CC5)C(=O)N4C[C@@H]4CCN(C(=O)C5CC5)C4)cc3)cc2c1C [compound 213, (R)-6-((1-(cyclopropanecarbonyl)pyrrolidin-3-yl)methyl)-5-(4-(2,3-dimethyl-1H-indol-5-yl)phenyl)-4,6-diazaspiro[2.4]hept-4-en-7-one]
IC50 (A2780 ovarian cells [1]): > 10000 nM
IC50 [2]: 75.9 nM
IC50 [3]: 355 nM
inhibition at 10 µM [4]: 95%
IC50 [4]: 46.8 nM
IC50 [5]: ~112 nM
IC50 (A2780 ovarian cells [6]): 115 nM

Cc1cc2cc(-c3ccc(C4=NC5(CC5)C(=O)N4C[C@@H]4CCN(C(=O)C5CC5)C4)cc3)ccc2[nH]1 [compound 214, (R)-6-((1-(cyclopropanecarbonyl)pyrrolidin-3-yl)methyl)-5-(4-(2-methyl-1H-indol-5-yl)phenyl)-4,6-diazaspiro[2.4]hept-4-en-7-one]
IC50 (A2780 ovarian cells [1]): > 10000 nM
IC50 [2]: 81.3 nM
IC50 [3]: 363 nM
inhibition at 10 µM [4]: 99%
IC50 [4]: 22.4 nM
IC50 [5]: 66.1 nM
IC50 (A2780 ovarian cells [6]): ~64.6 nM

Cn1ccc2cc(-c3ccc(C4=NC5(CC5)C(=O)N4C[C@@H]4CCN(C(=O)C5CC5)C4)cc3)ccc21 [compound 215, (R)-6-((1-(cyclopropanecarbonyl)pyrrolidin-3-yl)methyl)-5-(4-(1-methyl-1H-indol-5-yl)phenyl)-4,6-diazaspiro[2.4]hept-4-en-7-one]
IC50 (A2780 ovarian cells [1]): > 10000 nM
IC50 [2]: 24.5 nM
IC50 [3]: 70.8 nM
inhibition at 10 µM [4]: 102%
IC50 [4]: 23.4 nM
IC50 [5]: 15.8 nM
IC50 (A2780 ovarian cells [6]): 20.4 nM

O=C(C1CC1)N1CC[C@@H](CN2C(=O)C3(CC3)N=C2c2ccc(-c3ccc4[nH]c(CO)cc4c3)cc2)C1 [compound 216, (R)-6-((1-(cyclopropanecarbonyl)pyrrolidin-3-yl)methyl)-5-(4-(2-(hydroxymethyl)-1H-indol-5-yl)phenyl)-4,6-diazaspiro[2.4]hept-4-enn-7-one]
IC50 (A2780 ovarian cells [1]): > 10000 nM
IC50 [2]: 49 nM
IC50 [3]: 162 nM
inhibition at 10 µM [4]: 102%
IC50 [4]: 28.8 nM
IC50 [5]: ~53.7 nM
IC50 (A2780 ovarian cells [6]): 63.1 nM

O=C(C1CC1)N1CC[C@@H](CN2C(=O)C3(CC3)N=C2c2ccc(-c3ccc4[nH]cc(CCO)c4c3)cc2)C1 [compound 217, (R)-6-((1-(cyclopropanecarbonyl)pyrrolidin-3-yl)methyl)-5-(4-(3-(2-hydroxyethyl)-1H-indol-5-yl)phenyl)-4,6-diazaspiro[2.4]hept-4-en-7-one]
IC50 (A2780 ovarian cells [1]): > 10000 nM
IC50 [2]: 49 nM
IC50 [3]: 178 nM
inhibition at 10 µM [4]: 103%
IC50 [4]: 28.8 nM
IC50 [5]: 50.1 nM
IC50 (A2780 ovarian cells [6]): 30.2 nM

Cc1nn(C)c2ccc(-c3ccc(C4=NC5(CC5)C(=O)N4C[C@@H]4CCN(C(=O)C5CC5)C4)cc3)cc12 [compound 218, (R)-6-((1-(cyclopropanecarbonyl)pyrrolidin-3-yl)methyl)-5-(4-(1,3-dimethyl-1H-indazol-5-yl)phenyl)-4,6-diazaspiro[2.4]hept-4-en-7-one]
IC50 (A2780 ovarian cells [1]): > 10000 nM
IC50 [2]: 102 nM
IC50 [3]: 417 nM
inhibition at 10 µM [4]: 95%
IC50 [4]: 72.4 nM
IC50 [5]: 72.4 nM
IC50 (A2780 ovarian cells [6]): 85.1 nM

Nc1cc2cc(-c3ccc(C4=NC5(CC5)C(=O)N4C[C@@H]4CCN(C(=O)C5CC5)C4)cc3)ccc2cn1 [compound 219, (R)-5-(4-(3-aminoisoquinolin-6-yl)phenyl)-6-((1-(cyclopropanecarbonyl)pyrrolidin-3-yl)methyl)-4,6-diazaspiro[2.4]hept-4-en-7-one]
IC50 (A2780 ovarian cells [1]): 1170 nM
IC50 [2]: 263 nM
IC50 [3]: 302 nM
inhibition at 10 µM [4]: 103%
IC50 [4]: 75.9 nM
IC50 [5]: 126 nM
IC50 (A2780 ovarian cells [6]): 67.6 nM

Cn1nc(C(N)=O)c2ccc(-c3ccc(C4=NC5(CC5)C(=O)N4C[C@@H]4CCN(C(=O)C5CC5)C4)cc3)cc21 [compound 221, (R)-6-(4-(6-((1-(cyclopropanecarbonyl)pyrrolidin-3-yl)methyl)-7-oxo-4,6-diazaspiro[2.4]hept-4-en-5-yl)phenyl)-1-methyl-1H-indazole-3-carboxamide]
IC50 (A2780 ovarian cells [1]): 6920 nM
IC50 [2]: 234 nM
IC50 [3]: ~380 nM
inhibition at 10 µM [4]: 92%
IC50 [4]: 97.7 nM
IC50 [5]: 132 nM
IC50 (A2780 ovarian cells [6]): 46.8 nM

N#Cc1ccc2cc(-c3ccc(C4=NC5(CC5)C(=O)N4CC4CN(C(=O)C5CC5)C4)c(F)c3)ccc2c1 [compound 222, 6-(4-(6-((1-(cyclopropanecarbonyl)azetidin-3-yl)methyl)-7-oxo-4,6-diazaspiro[2.4]hept-4-en-5-yl)-3-fluorophenyl)-2-naphthanitrile]
IC50 (A2780 ovarian cells [1]): ~2450 nM
IC50 [2]: ~51.3 nM
IC50 [3]: 46.8 nM
inhibition at 10 µM [4]: 103%
IC50 [4]: 27.5 nM
IC50 [5]: 9.33 nM
IC50 (A2780 ovarian cells [6]): 6.17 nM

Cc1cc(-c2ccc3cc(C#N)ccc3c2)ccc1C1=NC2(CC2)C(=O)N1CC1CN(C(=O)C2CCO2)C1 (centres unmarked) [compound 224, 6-(3-methyl-4-(6-((1-(oxetane-2-carbonyl)azetidin-3-yl)methyl)-7-oxo-4,6-diazaspiro[2.4]hept-4-en-5-yl)phenyl)-2-naphthonitrile]
IC50 (A2780 ovarian cells [1]): ~10000 nM
IC50 [2]: 77.6 nM
IC50 [3]: 56.2 nM
inhibition at 10 µM [4]: 103%
IC50 [4]: 25.1 nM
IC50 [5]: 12.6 nM
IC50 (A2780 ovarian cells [6]): 7.76 nM

N#Cc1ccc2cc(-c3ccc(C4=NC5(CC5)C(=O)N4CC4CN(C(=O)C5(F)CC5)C4)c(F)c3)ccc2c1 [compound 225, 6-(3-fluoro-4-(6-((1-(1-fluorocyclopropanecarbonyl)azetidin-3-yl)methyl)-7-oxo-4,6-diazaspiro[2.4]hept-4-en-5-yl)phenyl)-2-naphthonitrile]
IC50 (A2780 ovarian cells [1]): 5250 nM
IC50 [2]: 74.1 nM
IC50 [3]: 158 nM
inhibition at 10 µM [4]: 95%
IC50 [4]: 38 nM
IC50 [5]: 26.9 nM
IC50 (A2780 ovarian cells [6]): 25.1 nM

N#Cc1ccc2cc(-c3ccc(C4=NC5(CC5)C(=O)N4CC4CN(C(=O)C5CCO5)C4)c(F)c3)ccc2c1 (centres unmarked) [compound 226, 6-(3-fluoro-4-(6-((1-(oxetane-2-carbonyl)azetidin-3-yl)methyl)-7-oxo-4,6-diazaspiro[2..4]hept-4-en-5-yl)phenyl)-2-naphthonitrile]
IC50 (A2780 ovarian cells [1]): > 10000 nM
IC50 [2]: 24 nM
IC50 [3]: 21.9 nM
inhibition at 10 µM [4]: 98%
IC50 [4]: 23.4 nM
IC50 [5]: ~5.89 nM
IC50 (A2780 ovarian cells [6]): 2.34 nM

Cn1cc2ccc(-c3ccc(C4=NC5(CC5)C(=O)N4CC4CN(C(=O)C5CC5)C4)c(F)c3)cc2n1 [compound 227, 6-((1-(cyclopropanecarbonyl)azetidin-3-yl)methyl)-5-(2-fluoro-4-(2-methyl-2H-indazol-6-yl)phenyl)-4,6-diazaspiro[2.4]hept-4-en-7-one]
IC50 (A2780 ovarian cells [1]): > 10000 nM
IC50 [2]: 151 nM
IC50 [3]: 355 nM
inhibition at 10 µM [4]: 99%
IC50 [4]: 42.7 nM
IC50 [5]: 55 nM
IC50 (A2780 ovarian cells [6]): 13.2 nM

Cc1cc(C2=NC3(CC3)C(=O)N2C[C@@H]2CCN(C(=O)C3CC3)C2)ccc1-c1ccc2sc(C)c(C)c2c1 [compound 231, (R)-6-((1-(cyclopropanecarbonyl)pyrrolidin-3-yl)methyl)-5-(4-(2,3-dimethylbenzo[b]thiophen-5-yl)-3-methylphenyl)-4,6-diazaspiro[2.4]hept-4-em-7-one]
IC50 (A2780 ovarian cells [1]): > 6170 nM
IC50 [2]: 282 nM
IC50 [3]: 2190 nM
inhibition at 10 µM [4]: 108%
IC50 [4]: 100 nM
IC50 [5]: ~1620 nM
IC50 (A2780 ovarian cells [6]): 2510 nM

O=C(C1CC1)N1CC[C@@H](CN2C(=O)C3(CC3)N=C2c2ccc(-c3ccc4sccc4c3)c(F)c2)C1 [compound 233, (R)-5-(4-(benzo[b]thiophen-5-yl)-3-fluorophenyl)-6-((1-(cyclopropanecarbonyl)pyrrolidin-3-yl)methyl)-4,6-diazaspiro[2.4]hept-4-en-7-one]
IC50 (A2780 ovarian cells [1]): > 10000 nM
IC50 [2]: 93.3 nM
IC50 [3]: 1700 nM
inhibition at 10 µM [4]: 110%
IC50 [4]: 50.1 nM
IC50 [5]: 575 nM
IC50 (A2780 ovarian cells [6]): 912 nM

O=C(C1CC1)N1CC[C@@H](CN2C(=O)C3(CC3)N=C2c2ccc(-c3ccc4[nH]ccc4c3)c(F)c2)C1 [compound 234, (R)-6-((1-(cyclopropanecarbonyl)pyrrolidin-3-yl)methyl)-5-(3-fluoro-4-(1H-indol-5-yl)phenyl)-4,6-diazaspiro[2.4]hept-4-en-7-one]
IC50 (A2780 ovarian cells [1]): > 10000 nM
IC50 [2]: 51.3 nM
IC50 [3]: 245 nM
inhibition at 10 µM [4]: 108%
IC50 [4]: 20.9 nM
IC50 [5]: 23.4 nM
IC50 (A2780 ovarian cells [6]): ~28.8 nM

O=C(C1CC1)N1CC[C@@H](CN2C(=O)C3(CC3)N=C2c2ccc(-c3ccc4cc[nH]c4c3)c(F)c2)C1 [compound 236, (R)-6-((1-(cyclopropanecarbonyl)pyrrolidin-3-yl)methyl)-5-(3-fluoro-4-(1H-indol-6-yl)phenyl)-4,6-diazaspiro[2.4]hept-4-en-7-one]
IC50 (A2780 ovarian cells [1]): > 10000 nM
IC50 [2]: 95.5 nM
IC50 [3]: 646 nM
inhibition at 10 µM [4]: 98%
IC50 [4]: 34.7 nM
IC50 [5]: 51.3 nM
IC50 (A2780 ovarian cells [6]): ~89.1 nM
